Measured values reported in patent US20220144775A1, “HYDRAZIDE COMPOUND AND KINASE INHIBITOR” (NISSAN CHEMICAL CORPORATION, priority 2019, published 2022).

Experiments:
LATS1 = molecular target: T1, LATS1 (Homo sapiens, UniProt O95835); assay: Kinase inhibitory activity against LATS1 (ADP quantification); format: biochemical; details: ATP 400 μM, read-out: kinase inhibitory rate
T1 construct: purchased Carna Biosciences
T1 sequence (O95835 1-1130): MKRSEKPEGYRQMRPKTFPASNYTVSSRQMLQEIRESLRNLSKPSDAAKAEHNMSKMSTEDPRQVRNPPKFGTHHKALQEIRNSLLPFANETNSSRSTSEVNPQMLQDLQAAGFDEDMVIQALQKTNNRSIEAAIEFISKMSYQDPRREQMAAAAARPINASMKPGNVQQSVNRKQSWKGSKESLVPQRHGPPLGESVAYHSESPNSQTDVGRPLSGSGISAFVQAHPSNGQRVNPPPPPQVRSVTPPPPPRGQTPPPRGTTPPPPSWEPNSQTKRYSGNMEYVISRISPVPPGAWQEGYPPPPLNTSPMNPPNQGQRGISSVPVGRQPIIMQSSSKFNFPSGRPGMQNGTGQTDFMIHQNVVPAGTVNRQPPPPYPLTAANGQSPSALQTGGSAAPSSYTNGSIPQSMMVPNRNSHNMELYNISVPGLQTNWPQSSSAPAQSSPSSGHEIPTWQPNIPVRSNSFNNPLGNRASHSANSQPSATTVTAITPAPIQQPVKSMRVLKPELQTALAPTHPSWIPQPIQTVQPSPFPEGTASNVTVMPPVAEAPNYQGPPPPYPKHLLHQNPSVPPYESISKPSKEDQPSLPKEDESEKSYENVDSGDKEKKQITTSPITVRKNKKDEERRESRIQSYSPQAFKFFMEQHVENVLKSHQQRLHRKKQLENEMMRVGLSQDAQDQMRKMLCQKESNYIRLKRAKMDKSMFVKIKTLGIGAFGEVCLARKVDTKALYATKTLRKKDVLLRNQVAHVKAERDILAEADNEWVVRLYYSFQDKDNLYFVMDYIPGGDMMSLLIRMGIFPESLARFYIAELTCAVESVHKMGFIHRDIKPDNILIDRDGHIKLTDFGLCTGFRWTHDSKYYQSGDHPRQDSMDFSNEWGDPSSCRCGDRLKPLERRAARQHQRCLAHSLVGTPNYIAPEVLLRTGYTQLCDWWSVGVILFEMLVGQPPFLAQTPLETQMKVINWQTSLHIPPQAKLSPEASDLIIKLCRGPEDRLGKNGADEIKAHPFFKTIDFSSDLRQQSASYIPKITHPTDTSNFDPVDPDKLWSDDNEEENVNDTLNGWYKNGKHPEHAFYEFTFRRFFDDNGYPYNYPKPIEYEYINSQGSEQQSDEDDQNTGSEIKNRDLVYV
Protocol: (§1) Evaluation of the inhibitory activity (calculation of kinase inhibitory rate) of the compound of the present invention against LATS1 and LATS2 (manufactured by Carna Biosciences) was performed. The activity was measured using the Kinase Assay method described below. The test concentration of the compound of the present invention was set such that the final concentration was 100 nM or 1000 nM.
(§2) As the analysis method of the data, the mean signal of the control well containing reaction components other than the compound of the present invention was set to 0% inhibition, the mean signal without enzyme addition was set to 100% inhibition, and the inhibition rate was calculated from the mean signal of 2 wells of each compound.
(§3) 2 μL of a compound of the present invention solution at 2.5-fold concentration, 1 μL of substrate at 5-fold concentration (SGKtide: NH2-CKKRNRRLSVA-COOH, manufactured by SignalChem), ATP (manufactured by Sigma-Aldrich), MgCl2 (manufactured by FUJIFILM Wako Pure Chemical Corporation) solution (final concentration 10 μM, 400 μM and 5 mM, respectively), and 2 μL of kinase solution at 2.5-fold concentration (final concentration of LATS1 or LATS2 5 μg/mL), each prepared with assay buffer (20 mM HEPES, 0.01% Triton X-100, 2 mM DTT, 50 μg/mL BSA, pH 7.5), were mixed in the wells of a polypropylene 384-well plate (manufactured by Greiner Bio-One, #784900) and reacted at room temperature for 5 hr. To the solution was added 5 μL detection solution [Fluorospark (registered trade mark) Kinase/ADP Multi-Assay Kit; manufactured by FUJIFILM Wako Pure Chemical Corporation], and the mixture was reacted at room temperature for 30 min. Successively, 5 μL of a reaction quenching liquid [Fluorospark (registered trade mark) Kinase/ADP Multi-Assay Kit; manufactured by FUJIFILM Wako Pure Chemical Corporation] was added to discontinue the reaction. Thereafter, the ADP concentration of the reaction solution was quantified by EnSpire (manufactured by PerkinElmer) to detect the kinase reaction.

LATS2 = molecular target: T2, LATS2 (Homo sapiens, UniProt Q9NRM7); assay: Kinase inhibitory activity against LATS2 (ADP quantification); format: biochemical; details: ATP 400 μM, read-out: kinase inhibitory rate
T2 construct: purchased Carna Biosciences
T2 sequence (Q9NRM7 1-1088): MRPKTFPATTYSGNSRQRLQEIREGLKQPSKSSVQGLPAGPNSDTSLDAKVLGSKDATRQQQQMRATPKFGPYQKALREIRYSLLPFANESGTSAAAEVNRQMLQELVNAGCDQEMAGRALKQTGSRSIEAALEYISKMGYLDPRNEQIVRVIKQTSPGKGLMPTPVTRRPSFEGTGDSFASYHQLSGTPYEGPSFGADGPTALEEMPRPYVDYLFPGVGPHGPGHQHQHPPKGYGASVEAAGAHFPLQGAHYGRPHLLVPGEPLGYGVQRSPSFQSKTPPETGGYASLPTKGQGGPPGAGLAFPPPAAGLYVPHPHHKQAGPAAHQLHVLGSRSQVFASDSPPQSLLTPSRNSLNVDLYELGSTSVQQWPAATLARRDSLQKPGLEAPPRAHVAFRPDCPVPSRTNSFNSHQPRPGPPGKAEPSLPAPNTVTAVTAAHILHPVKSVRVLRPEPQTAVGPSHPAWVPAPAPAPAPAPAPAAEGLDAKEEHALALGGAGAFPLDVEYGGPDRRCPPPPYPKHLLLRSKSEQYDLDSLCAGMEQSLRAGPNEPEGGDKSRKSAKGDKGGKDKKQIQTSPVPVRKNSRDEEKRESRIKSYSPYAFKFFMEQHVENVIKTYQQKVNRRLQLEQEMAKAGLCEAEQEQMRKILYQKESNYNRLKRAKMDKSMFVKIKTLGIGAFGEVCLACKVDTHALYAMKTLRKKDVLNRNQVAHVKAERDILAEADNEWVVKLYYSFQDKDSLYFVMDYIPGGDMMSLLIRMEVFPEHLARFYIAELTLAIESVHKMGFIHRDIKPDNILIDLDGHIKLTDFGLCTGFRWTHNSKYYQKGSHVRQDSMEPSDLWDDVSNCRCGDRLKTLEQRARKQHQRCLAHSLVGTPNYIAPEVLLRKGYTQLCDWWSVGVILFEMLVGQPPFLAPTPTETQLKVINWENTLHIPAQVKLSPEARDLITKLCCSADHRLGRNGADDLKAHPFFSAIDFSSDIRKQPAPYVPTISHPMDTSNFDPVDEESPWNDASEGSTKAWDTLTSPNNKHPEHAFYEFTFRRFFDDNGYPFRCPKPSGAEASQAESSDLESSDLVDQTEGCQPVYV
Protocol: as §1, §2, §3

- inhibition at 0.1 µM (LATS1; final concentration 100 nM): ≥ 40%
- inhibition at 1 µM (LATS1; final concentration 1000 nM): ≥ 40%
- inhibition at 0.1 µM (LATS2; final concentration 100 nM): ≥ 40%
- inhibition at 1 µM (LATS2; final concentration 1000 nM): ≥ 40%
SMILES: CC/C(=N\NC(=O)CNc1ccccn1)c1ccc(O)c(C)c1O [A-001, (E)-N′-(1-(2,4-dihydroxy-3-methylphenyl)propylidene)-2-(pyridin-2-ylamino)acetohydrazide]
